In PubChem BioAssay (NCI):
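Here, GI50 denotes the concentration required for 50% inhibition of growth. Definition used: TGI = concentration required for complete inhibition of growth.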

Legend:
Assay in all cases: NCI anticancer screen, dose series, 384-well format
[1] = test system: MALME-3M melanoma
[2] = test system: OVCAR-3 ovarian
[3] = test system: MDA-MB-435 melanoma
[4] = test system: BT-549 breast
[5] = test system: MDA-MB-231 breast
[6] = test system: HT29 colon
[7] = test system: SNB-75 CNS
[8] = test system: A498 renal
[9] = test system: RXF 393 renal
[10] = test system: SF-295 CNS
[11] = test system: MDA-MB-468 breast
[12] = test system: 786-0 renal
[13] = test system: OVCAR-8 ovarian
[14] = test system: HOP-62 NSCLC
[15] = test system: PC-3 prostate
[16] = test system: M14 melanoma
[17] = test system: NCI-H522 lung
[18] = test system: UACC-62 melanoma
[19] = test system: COLO 205 colon
[20] = test system: OVCAR-4 ovarian
[21] = test system: RPMI-8226 leukemia
[22] = test system: NCI-H460 NSCLC
[23] = test system: HOP-92 NSCLC
[24] = test system: NCI-H322M lung
[25] = test system: T-47D breast
[26] = test system: SK-MEL-28 melanoma
[27] = test system: HS 578T breast
[28] = test system: SK-OV-3 ovarian
[29] = test system: SN12C renal
[30] = test system: TK-10 renal
[31] = test system: LOX IMVI melanoma
[32] = test system: HCT-116 colon
[33] = test system: SF-539 CNS
[34] = test system: UO-31 renal
[35] = test system: ACHN renal
[36] = test system: A549 NSCLC
[37] = test system: MOLT-4 leukemia
[38] = test system: U251 glioblastoma
[39] = test system: CCRF-CEM leukemia
[40] = test system: HL-60(TB) leukemia
[41] = test system: SW-620 colon
[42] = test system: KM12 colon
[43] = test system: MCF7 breast
[44] = test system: IGROV1 ovarian
[45] = test system: EKVX NSCLC
[46] = test system: SF-268 CNS
[47] = test system: SR leukemia
[48] = test system: NCI-H226 lung
[49] = test system: HCT-15 colon
[50] = test system: CAKI-1 renal
[51] = test system: SK-MEL-2 melanoma
[52] = test system: DU-145 prostate
[53] = test system: SNB-19 CNS
[54] = test system: K-562 leukemia
[55] = test system: UACC-257 melanoma
[56] = test system: OVCAR-5 ovarian

`CC1(C)CCC(CN2CCN(c3ccc(C(=O)NS(=O)(=O)c4ccc(NCC5CCOCC5)c([N+](=O)[O-])c4)c(Oc4cnc5[nH]ccc5c4)c3)CC2)=C(c2ccc(Cl)cc2)C1` was tested, and the GI50 [1] was 2.81 µM, the TGI [1] was 6.5 µM and the GI50 [2] was 4.55 µM. For the same molecule, the TGI [2] was 7.36 µM, the GI50 [3] was 3.43 µM and the TGI [3] was 16.6 µM. For the same molecule, the GI50 [4] was 3.79 µM, the TGI [4] was 9.18 µM and the GI50 [5] was 2.49 µM. The TGI [5] was 6.01 µM, the GI50 [6] was 5.16 µM and the TGI [6] was 7.3 µM. For the same molecule, the GI50 [7] was 4.58 µM, the TGI [7] was 9.27 µM and the GI50 [8] was 3.64 µM. For the same molecule, the TGI [8] was 8.99 µM, the GI50 [9] was 3.41 µM and the TGI [9] was 5.69 µM. The GI50 [10] was 3.98 µM, the TGI [10] was 7.88 µM and the GI50 [11] was 3.67 µM. The TGI [11] was 7.05 µM, the GI50 [12] was 3.15 µM and the TGI [12] was 9.12 µM. It also gave a GI50 [13] of 4.44 µM, a TGI [13] of 7.43 µM and a GI50 [14] of 6.2 µM. The TGI [14] was 9.88 µM, the GI50 [15] was 4.61 µM and the TGI [15] was 12.2 µM. For the same molecule, the GI50 [16] was 3.51 µM, the TGI [16] was 9.14 µM and the GI50 [17] was 14.9 µM. For the same molecule, the TGI [17] was 20.2 µM, the GI50 [18] was 4.95 µM and the TGI [18] was 7.13 µM. The GI50 [19] was 3.81 µM, the TGI [19] was 6.68 µM and the GI50 [20] was 2.98 µM. The TGI [20] was 6.29 µM, the GI50 [21] was 1.75 µM and the TGI [21] was 3.99 µM. It also gave a GI50 [22] of 4.46 µM, a TGI [22] of 7.85 µM and a GI50 [23] of 1.83 µM. For the same molecule, the TGI [23] was 3.73 µM, the GI50 [24] was 4.57 µM and the TGI [24] was 11.5 µM. It also gave a GI50 [25] of 5.12 µM, a TGI [25] of 8.12 µM and a GI50 [26] of 4.05 µM. For the same molecule, the TGI [26] was 9.58 µM, the GI50 [27] was 3.14 µM and the TGI [27] was 7.93 µM. It also gave a GI50 [28] of 15.5 µM, a TGI [28] of 21.1 µM and a GI50 [29] of 4.52 µM. The TGI [29] was 14.9 µM, the GI50 [30] was 6.84 µM and the TGI [30] was 12.4 µM. The GI50 [31] was 9.62 µM, the GI50 [32] was 4.46 µM and the TGI [32] was 11.8 µM. The GI50 [33] was 3.6 µM, the TGI [33] was 7.94 µM and the GI50 [34] was 3.63 µM. For the same molecule, the TGI [34] was 8 µM, the GI50 [35] was 4.22 µM and the TGI [35] was 11.6 µM. For the same molecule, the GI50 [36] was 4.97 µM, the TGI [36] was 11.2 µM and the GI50 [37] was 1.26 µM. It also gave a TGI [37] of 2.62 µM, a GI50 [38] of 5.89 µM and a TGI [38] of 9.82 µM. For the same molecule, the GI50 [39] was 7.94 µM, the GI50 [40] was 0.105 µM and the TGI [40] was 0.802 µM. The GI50 [41] was 6.09 µM, the TGI [41] was 7.57 µM and the GI50 [42] was 5.75 µM. It also gave a TGI [42] of 8.84 µM, a GI50 [43] of 4.38 µM and a TGI [43] of 8.24 µM. For the same molecule, the GI50 [44] was 2.81 µM, the TGI [44] was 7.24 µM and the GI50 [45] was 6.98 µM. It also gave a TGI [45] of 14.3 µM, a GI50 [46] of 3.84 µM and a TGI [46] of 8.19 µM. For the same molecule, the GI50 [47] was 1.38 µM, the TGI [47] was 2.68 µM and the GI50 [48] was 7.08 µM. The TGI [48] was 10.6 µM, the GI50 [49] was 5.11 µM and the TGI [49] was 9.19 µM. The GI50 [50] was 5.47 µM, the TGI [50] was 11.7 µM and the GI50 [51] was 1.93 µM. The TGI [51] was 3.43 µM, the GI50 [52] was 5.66 µM and the TGI [52] was 18.5 µM. For the same molecule, the GI50 [53] was 5.63 µM, the TGI [53] was 11 µM and the GI50 [54] was 2.13 µM. It also gave a TGI [54] of 4.28 µM, a GI50 [55] of 5.19 µM and a TGI [55] of 7 µM. The GI50 [56] was 3.53 µM and the TGI [56] was 6.62 µM.
